Test results reported in patent US10987357B2, “Aerosolized fluoroquinolones and uses thereof” (Horizon Orphan, LLC, priority 2005, dated 2021).

System: Sa
Assay: not given
Conditions: Table 7; cited from earlier work

Compound	Sa MIC90 [µg/mL]
NC1CCN(c2c(F)cc3c(=O)c(C(=O)O)cn(C4CC4)c3c2Cl)C1 (centres unmarked) [Clinafloxacin]	0.06

System: not listed separately
Assay: Rat pharmacokinetic model (IV vs microspray aerosol, intratracheal)
Type: in vivo, rats
Conditions: IT, 10 mg/kg
Method: […] Blood samples are taken at various times over 3 hours to determine the plasma pharmacokinetic parameters. […] The plasma and tissue concentrations are determined by an HPLC method and the data are then fit using WinNonlin.

Compound	F, % from Lung vs. IV [%]
CO/N=C1\CN(c2nc3c(cc2F)c(=O)c(C(=O)O)cn3C2CC2)CC1CN (centres unmarked) [Gemifloxacin]	86
COc1c(N2CCNC(C)C2)c(F)cc2c(=O)c(C(=O)O)cn(C3CC3)c12 (centres unmarked) [Gatifloxacin]	100

Same assay, conditions: rat, epithelial lining fluid (ELF), inhaled or intranasal; IT, 10 mg/kg

Compound	AUC [ng·h/mL]
CO/N=C1\CN(c2nc3c(cc2F)c(=O)c(C(=O)O)cn3C2CC2)CC1CN (centres unmarked) [Gemifloxacin]	536000
NC1CCN(c2c(F)cc3c(=O)c(C(=O)O)cn(C4CC4)c3c2Cl)C1 (centres unmarked) [Clinafloxacin]	30800
COc1c(N2CCNC(C)C2)c(F)cc2c(=O)c(C(=O)O)cn(C3CC3)c12 (centres unmarked) [Gatifloxacin]	54700

Same assay, conditions: rat, epithelial lining fluid (ELF), iv, 8 mg/kg

Compound	AUC [ng·h/mL]
CO/N=C1\CN(c2nc3c(cc2F)c(=O)c(C(=O)O)cn3C2CC2)CC1CN (centres unmarked) [Gemifloxacin]	3720

Same assay, conditions: rat, epithelial lining fluid (ELF), iv, 10 mg/kg

Compound	AUC [ng·h/mL]
COc1c(N2CCNC(C)C2)c(F)cc2c(=O)c(C(=O)O)cn(C3CC3)c12 (centres unmarked) [Gatifloxacin]	5320

Same assay, conditions: rat, serum, inhaled or intranasal; IT, 10 mg/kg

Compound	AUC(0-inf) [ng·h/mL]
NC1CCN(c2c(F)cc3c(=O)c(C(=O)O)cn(C4CC4)c3c2Cl)C1 (centres unmarked) [Clinafloxacin]	3200

Same assay, conditions: rat, serum, inhaled or intranasal; IT, 10 mg/kg; read-out: Serum t1/2 (converted)

Compound	half-life [min]
NC1CCN(c2c(F)cc3c(=O)c(C(=O)O)cn(C4CC4)c3c2Cl)C1 (centres unmarked) [Clinafloxacin]	44.4

Same assay, conditions: rat, serum, iv, 8 mg/kg; read-out: Serum t1/2 (converted)

Compound	half-life [min]
CO/N=C1\CN(c2nc3c(cc2F)c(=O)c(C(=O)O)cn3C2CC2)CC1CN (centres unmarked) [Gemifloxacin]	62.4

System: not listed separately
Assay: Dissolution rate studies
Conditions: 2-10 minutes; 500 ml pH 7.4 Tris buffer, 37° C., paddles 100 rpm

Compound	dissolution rate
C[C@H]1COc2c(N3CCN(C)CC3)c(F)cc3c(=O)c(C(=O)O)cn1c23.O=C(O)c1cc2ccccc2c(Cc2c(O)c(C(=O)O)cc3ccccc23)c1O [levofloxacin pamoate]	approximately 0.146 mg/min

Same assay, conditions: 10-60 minutes; pH 7.4 Tris buffer, 37° C.

Compound	dissolution rate [mg/min]
C[C@H]1COc2c(N3CCN(C)CC3)c(F)cc3c(=O)c(C(=O)O)cn1c23.O=C(O)c1cc2ccccc2c(Cc2c(O)c(C(=O)O)cc3ccccc23)c1O [levofloxacin pamoate]	0.0331

System: P. aeruginosa strain PAM 1723
Assay: Mouse lung infection efficacy model
Conditions: Pseudomonas aeruginosa, PAM1723, in Mus musculus, 1 h, read-out: DeltaLOG CPU 1 hr, route IT, dose 10 mg/kg, 1 hr post-drug administration
Method: The inoculum is adjusted to ca. 5×10^6 CFU/ml by correlation of absorbance at 600 nm with predetermined plate counts. […] On day 5, mice are infected by an intratracheal instillation of 0.05 ml of inoculum while under isoflurane anesthesia (5% isoflurane in oxygen running at 4 L/min). […] Mice are sacrificed 1 and 4 hours after treatment, their lungs removed, homogenized and plated to determine colony counts.

Compound	log reduction at 10 mg/kg
NC1CCN(c2c(F)cc3c(=O)c(C(=O)O)cn(C4CC4)c3c2Cl)C1 (centres unmarked) [Clinafloxacin]	2.71

Same assay, conditions: Pseudomonas aeruginosa, PAM1723, in Mus musculus, 1 h, read-out: DeltaLOG CPU 1 hr, route IT, dose 25 mg/kg, 1 hr post-drug administration

Compound	log reduction at 25 mg/kg
CO/N=C1\CN(c2nc3c(cc2F)c(=O)c(C(=O)O)cn3C2CC2)CC1CN (centres unmarked) [Gemifloxacin]	3.2
NC1CCN(c2c(F)cc3c(=O)c(C(=O)O)cn(C4CC4)c3c2Cl)C1 (centres unmarked) [Clinafloxacin]	2.86
COc1c(N2CCNC(C)C2)c(F)cc2c(=O)c(C(=O)O)cn(C3CC3)c12 (centres unmarked) [Gatifloxacin]	1.48

Same assay, conditions: Pseudomonas aeruginosa, PAM1723, in Mus musculus, 4 h, read-out: DeltaLOG CPU 4 hr, route IT, dose 10 mg/kg, 4 hr post-drug administration

Compound	log reduction at 10 mg/kg
NC1CCN(c2c(F)cc3c(=O)c(C(=O)O)cn(C4CC4)c3c2Cl)C1 (centres unmarked) [Clinafloxacin]	2.4

Same assay, conditions: Pseudomonas aeruginosa, PAM1723, in Mus musculus, 4 h, read-out: DeltaLOG CPU 4 hr, route IT, dose 25 mg/kg, 4 hr post-drug administration

Compound	log reduction at 25 mg/kg
CO/N=C1\CN(c2nc3c(cc2F)c(=O)c(C(=O)O)cn3C2CC2)CC1CN (centres unmarked) [Gemifloxacin]	2.28
NC1CCN(c2c(F)cc3c(=O)c(C(=O)O)cn(C4CC4)c3c2Cl)C1 (centres unmarked) [Clinafloxacin]	2.47
COc1c(N2CCNC(C)C2)c(F)cc2c(=O)c(C(=O)O)cn(C3CC3)c12 (centres unmarked) [Gatifloxacin]	2.11

Same assay, conditions: Pseudomonas aeruginosa, PAM1723, in Mus musculus, ip, 1 h, read-out: DeltaLOG CPU 1 hr, route IP, dose 10 mg/kg, 1 hr post-drug administration

Compound	log reduction at 10 mg/kg
NC1CCN(c2c(F)cc3c(=O)c(C(=O)O)cn(C4CC4)c3c2Cl)C1 (centres unmarked) [Clinafloxacin]	0.96

Same assay, conditions: Pseudomonas aeruginosa, PAM1723, in Mus musculus, ip, 1 h, read-out: DeltaLOG CPU 1 hr, route IP, dose 25 mg/kg, 1 hr post-drug administration

Compound	log reduction at 25 mg/kg
NC1CCN(c2c(F)cc3c(=O)c(C(=O)O)cn(C4CC4)c3c2Cl)C1 (centres unmarked) [Clinafloxacin]	1.32
COc1c(N2CCNC(C)C2)c(F)cc2c(=O)c(C(=O)O)cn(C3CC3)c12 (centres unmarked) [Gatifloxacin]	0.34

Same assay, conditions: Pseudomonas aeruginosa, PAM1723, in Mus musculus, ip, 4 h, read-out: DeltaLOG CPU 4 hr, route IP, dose 10 mg/kg, 4 hr post-drug administration

Compound	log reduction at 10 mg/kg
NC1CCN(c2c(F)cc3c(=O)c(C(=O)O)cn(C4CC4)c3c2Cl)C1 (centres unmarked) [Clinafloxacin]	1.39

Same assay, conditions: Pseudomonas aeruginosa, PAM1723, in Mus musculus, ip, 4 h, read-out: DeltaLOG CPU 4 hr, route IP, dose 25 mg/kg, 4 hr post-drug administration

Compound	log reduction at 25 mg/kg
NC1CCN(c2c(F)cc3c(=O)c(C(=O)O)cn(C4CC4)c3c2Cl)C1 (centres unmarked) [Clinafloxacin]	1.33
COc1c(N2CCNC(C)C2)c(F)cc2c(=O)c(C(=O)O)cn(C3CC3)c12 (centres unmarked) [Gatifloxacin]	0.02

System: not listed separately
Assay: physchem
Conditions: 10 mg/mL in sterile water
Method: A 2 to 20 mg sample of each antibiotic was weighed into sterile plastic tubes and brought up with a volume of sterile water to make a 10 mg/mL solution or suspension of the antibiotic. Samples were incubated for approximately 10 minutes at room temperature with occasional mixing, prior to further handling.
The insoluble solutions were titrated with 1N HCl to the point of visible solubility, and the pH of the solubilized solution determined.
After the pH adjustment, and following a further 10 minute incubation period with occasional mixing, the final appearance of the solutions was determined, just prior to the aerosol tolerability and taste test.

Compound	Initial Solution pH
CO/N=C1\CN(c2nc3c(cc2F)c(=O)c(C(=O)O)cn3C2CC2)CC1CN (centres unmarked) [Gemifloxacin]	4.7
COc1c(N2CCNC(C)C2)c(F)cc2c(=O)c(C(=O)O)cn(C3CC3)c12 (centres unmarked) [Gatifloxacin]	7.0

Same assay, conditions: 10 mg/mL in sterile water, room temperature

Compound	Initial Solution Appearance
CO/N=C1\CN(c2nc3c(cc2F)c(=O)c(C(=O)O)cn3C2CC2)CC1CN (centres unmarked) [Gemifloxacin]	colorless, transparent, no
COc1c(N2CCNC(C)C2)c(F)cc2c(=O)c(C(=O)O)cn(C3CC3)c12 (centres unmarked) [Gatifloxacin]	white, cloudy, visible

Same assay, conditions: 10 mg/mL, titrated with 1N HCl

Compound	After pH Adjustment Appearance	After pH Adjustment pH
COc1c(N2CCNC(C)C2)c(F)cc2c(=O)c(C(=O)O)cn(C3CC3)c12 (centres unmarked) [Gatifloxacin]	slight yellow color,	3.0

Same assay, conditions: aqueous buffer, thermodynamic from solid

Compound	solubility at 10 min [µg/mL]
CO/N=C1\CN(c2nc3c(cc2F)c(=O)c(C(=O)O)cn3C2CC2)CC1CN (centres unmarked) [Gemifloxacin]	> 10000
COc1c(N2CCNC(C)C2)c(F)cc2c(=O)c(C(=O)O)cn(C3CC3)c12 (centres unmarked) [Gatifloxacin]	> 10000

Same assay, conditions: final solution, 10 mg/mL

Compound	pH of final solution
COc1c(N2CCNC(C)C2)c(F)cc2c(=O)c(C(=O)O)cn(C3CC3)c12 (centres unmarked) [Gatifloxacin]	3.0

System: Pseudomonas aeruginosa (Pa)
Assay: not given
Conditions: Table 6; cited from earlier work

Compound	Pa MIC90 [µg/mL]
CO/N=C1\CN(c2nc3c(cc2F)c(=O)c(C(=O)O)cn3C2CC2)CC1CN (centres unmarked) [Gemifloxacin]	8
COc1c(N2CCNC(C)C2)c(F)cc2c(=O)c(C(=O)O)cn(C3CC3)c12 (centres unmarked) [Gatifloxacin]	16

Same assay, conditions: Table 7; cited from earlier work

Compound	Pa MIC90 [µg/mL]
NC1CCN(c2c(F)cc3c(=O)c(C(=O)O)cn(C4CC4)c3c2Cl)C1 (centres unmarked) [Clinafloxacin]	4

Same assay, conditions: cited from earlier work

Compound	rank of potency against Pa
CO/N=C1\CN(c2nc3c(cc2F)c(=O)c(C(=O)O)cn3C2CC2)CC1CN (centres unmarked) [Gemifloxacin]	most potent
COc1c(N2CCNC(C)C2)c(F)cc2c(=O)c(C(=O)O)cn(C3CC3)c12 (centres unmarked) [Gatifloxacin]	most potent

System: Streptococcus pneumonia (Sp)
Assay: not given
Conditions: Table 6; cited from earlier work

Compound	SP MIC90 [µg/mL]
CO/N=C1\CN(c2nc3c(cc2F)c(=O)c(C(=O)O)cn3C2CC2)CC1CN (centres unmarked) [Gemifloxacin]	0.06
COc1c(N2CCNC(C)C2)c(F)cc2c(=O)c(C(=O)O)cn(C3CC3)c12 (centres unmarked) [Gatifloxacin]	0.5

Same assay, conditions: Table 7; cited from earlier work

Compound	Sp MIC90 [µg/mL]
NC1CCN(c2c(F)cc3c(=O)c(C(=O)O)cn(C4CC4)c3c2Cl)C1 (centres unmarked) [Clinafloxacin]	0.06

System: methicillin resistant Staphylococcus aureus (MRSA)
Assay: not given
Conditions: Table 6; cited from earlier work

Compound	MRSA MIC90 [µg/mL]
CO/N=C1\CN(c2nc3c(cc2F)c(=O)c(C(=O)O)cn3C2CC2)CC1CN (centres unmarked) [Gemifloxacin]	2
COc1c(N2CCNC(C)C2)c(F)cc2c(=O)c(C(=O)O)cn(C3CC3)c12 (centres unmarked) [Gatifloxacin]	4

Same assay, conditions: Table 7; cited from earlier work

Compound	MRSA MIC90 [µg/mL]
NC1CCN(c2c(F)cc3c(=O)c(C(=O)O)cn(C4CC4)c3c2Cl)C1 (centres unmarked) [Clinafloxacin]	2

Same assay, conditions: cited from earlier work

Compound	rank of potency against MRSA
CO/N=C1\CN(c2nc3c(cc2F)c(=O)c(C(=O)O)cn3C2CC2)CC1CN (centres unmarked) [Gemifloxacin]	most potent

System: MSSA
Assay: not given
Conditions: Table 6; cited from earlier work

Compound	MSSA MIC90 [µg/mL]
CO/N=C1\CN(c2nc3c(cc2F)c(=O)c(C(=O)O)cn3C2CC2)CC1CN (centres unmarked) [Gemifloxacin]	0.06
COc1c(N2CCNC(C)C2)c(F)cc2c(=O)c(C(=O)O)cn(C3CC3)c12 (centres unmarked) [Gatifloxacin]	0.125

System: not given
Assay: not given
Conditions: in vivo
Method: In the second test, the tolerability and taste of a small aerosol sample from a 0.5 ml aliquot of the test formulation was determined in a single healthy human volunteer, following nebulization in a PARI eFlow nebulizer (Table 12).
The tolerability and taste of the drug during a very brief administration period and for a period of 10 minutes post administration were monitored. Tolerability parameters were of the following types: (i) cough, cough sensation, or sneezing (ii) irritation, burning or tightness of throat, (ii) irritation or runniness in nasal passages or eyes, (iii) irritation, burning or tightness of the lungs or shortness of breadth, and (iv) dizziness, headache, nausea or other systemic effects.

Compound	Aerosol Tolerability and Taste	cough on aerosol exposure
CO/N=C1\CN(c2nc3c(cc2F)c(=O)c(C(=O)O)cn3C2CC2)CC1CN (centres unmarked) [Gemifloxacin]	strong unpleasant bitter taste, strong	
COc1c(N2CCNC(C)C2)c(F)cc2c(=O)c(C(=O)O)cn(C3CC3)c12 (centres unmarked) [Gatifloxacin]	moderate bitter unpleasant taste,	associated with cough
